Values quoted from earlier work as cited in US20050009897A1, “Method of treatment” (priority 2001, published 2005).
Where two headings read alike, the source gives them in different places.

Assays:
[1] = hypertensive patients; cited from earlier work
[2] = 45 hypertensive diabetic patients, cited from earlier work
[3] = compared with other β-blockers, angiotensin converting enzyme inhibitors or calcium channel blockers; cited from earlier work
[4] = nondiabetic hypertensive individuals; cited from earlier work

SMILES	glycemic control [1]	fasting glucose [2]	fasting insulin [2]	glucose disposal [2]	insulin sensitivity [2]	lipid peroxidation [2]	antihypertensive effect ([2]; relative to carvedilol)	lowering blood pressure [3]	HbA1c [2]	insulin sensitivity [4]
CC(C)NCC(O)COc1ccc(CC(N)=O)cc1 (stereo not shown) [atenolol]	significantly reduce	increased	increased	decreased	decreased	no effect	equivalent	–	–	–
COc1ccccc1OCCNCC(O)COc1cccc2[nH]c3ccccc3c12 (stereo not shown) [carvedilol]	–	decreased	decreased	increased	increased	decreased	–	as effective as other β-blockers, angiotensin converting enzyme inhibitors or calcium channel blockers	decreased	increases
CC(C)NCC(O)COc1cccc2ccccc12 (stereo not shown) [propranolol]	significantly reduce	–	–	–	–	–	–	–	–	–
